Assay results published in the CheMixHub viscosity set.

Experiment: xn = mol fraction of the nth substance listed

CCCCCCCCCCCCCC + CCCCCO
viscosity [mPa·s], 101.33 kPa
Details | x1 = 0.0999 | x1 = 0.2002 | x1 = 0.3001 | x1 = 0.3987 | x1 = 0.5009 | x1 = 0.6004 | x1 = 0.6996 | x1 = 0.8014 | x1 = 0.9002
293.15 K | 3.262 | 2.941 | 2.698 | 2.52 | 2.396 | 2.31 | 2.26 | 2.234 | 2.243
303.15 K | 2.499 | 2.274 | 2.103 | 1.982 | 1.896 | 1.845 | 1.82 | 1.817 | 1.829
313.15 K | 1.963 | 1.797 | 1.674 | 1.588 | 1.531 | 1.5 | 1.491 | 1.501 | 1.519
323.15 K | 1.556 | 1.441 | 1.353 | 1.297 | 1.259 | 1.241 | 1.246 | 1.262 | 1.285

O=[N+]([O-])c1ccccc1 + CC(C)CO
viscosity [mPa·s], 101.33 kPa
Details | x1 = 0.063 | x1 = 0.1521 | x1 = 0.2051 | x1 = 0.2864 | x1 = 0.376 | x1 = 0.4746 | x1 = 0.6038 | x1 = 0.7066 | x1 = 0.8442
298.15 K | 2.804 | 2.416 | 2.228 | 2.054 | 1.884 | 1.811 | 1.755 | 1.701 | 1.679
303.15 K | 2.423 | 2.072 | 1.956 | 1.819 | 1.677 | 1.596 | 1.538 | 1.495 | 1.517

O=C[C@H](O)[C@@H](O)[C@H](O[C@@H]1O[C@H](CO)[C@H](O)[C@H](O)[C@H]1O)[C@H](O)CO + O
viscosity [mPa·s]
Details | 100 kPa | 101 kPa
293.15 K, x1 = 0.002 | – | 1.074
293.15 K, x1 = 0.004 | – | 1.155
293.15 K, x1 = 0.005 | – | 1.241
298.15 K, x1 = 0.002 | 0.976 | 0.9875
298.15 K, x1 = 0.004 | – | 1.065
298.15 K, x1 = 0.005 | – | 1.149
303.15 K, x1 = 0.002 | 0.873 | 0.8893
303.15 K, x1 = 0.004 | – | 0.9654
303.15 K, x1 = 0.005 | – | 1.047
308.15 K, x1 = 0.001805 | – | 0.784
308.15 K, x1 = 0.002 | 0.786 | 0.7922
308.15 K, x1 = 0.003683 | – | 0.864
308.15 K, x1 = 0.004 | – | 0.8716
308.15 K, x1 = 0.005 | – | 0.9524
308.15 K, x1 = 0.005432 | – | 0.934
308.15 K, x1 = 0.006317 | – | 0.966
308.15 K, x1 = 0.007218 | – | 1.012
308.15 K, x1 = 0.008098 | – | 1.063
313.15 K, x1 = 0.002 | 0.709 | 0.7014
313.15 K, x1 = 0.004 | – | 0.7822
313.15 K, x1 = 0.005 | – | 0.8636
318.15 K, x1 = 0.001802 | – | 0.601
318.15 K, x1 = 0.002729 | – | 0.621
318.15 K, x1 = 0.003613 | – | 0.642
318.15 K, x1 = 0.004521 | – | 0.67
318.15 K, x1 = 0.006298 | – | 0.725
318.15 K, x1 = 0.007249 | – | 0.757
318.15 K, x1 = 0.01074 | – | 0.885
